The nature of this data set: Salt formation experiments / physical characteristics of solid forms. The note with it: solid hydrochloride salt. The data set is classed as physicochemical. The procedure: Thus, a series of experiments was conducted to assess the preparation of NVX-144 salts of acids other than hydrochloric acid as possible novel compounds better suited to pharmaceutical preparations. […] As expected, NVX-144 base readily formed salts with strong organic acids.
Although oxalic acid co-crystals are rare, Trask et al. have reported a co-crystal of caffeine with oxalic acid (see Trask et al., “Pharmaceutical Cocrystallization: Engineering a Remedy for Caffeine Hydration,” Crystal Growth & Design, 5, 1013-21 (2005)).
Thus NVX-144 would not be expected to form a salt with oxalic acid, a relatively strong dicarboxylic acid.

The values below come from patent publication US8058437B2, “(Pyrroloquinoxalinyl) pyrazinecarbohydrazide-oxalic acid co-crystal for treatment of cancer and other diseases” (Novelix Pharmaceuticals, Inc., priority 2008, dated 2011).

Consider `Cl.O=C(NNc1nc2cc(F)ccc2n2cccc12)c1cnccn1` [NVX-144.HCl, N′-(7-fluoropyrrolo[1,2a]quinoxalin-4-yl)pyrazine-2-carbohydrazide hydrochloride], for which the “physical characteristics of crystals” value is given as “fluffy, statically-charged, hygroscopic crystals”.
